Where a name gives a salt, the structure may show the parent alone.
Experiments:
VCaP spheroids = conditions: 7 days, up to the highest concentrations used
Procedure: (§1) prostate cancer cells. GAPDH was used as a loading control.
(§2) Spheroids were treated for 7 days with the indicated concentrations of each drug, stained with PI (1 mg/mL) for 30 min and […] was evaluated using the Celigo® imaging system. Results are expressed as mortality ratios as compared to untreated spheroids (set at 1). Each point represent s the m ean ± SEM of 3 […]
(§3) Mortality (ratio/control)
(§4) [Harmol Hydrochloride] (M)

LNCaP spheroids = conditions: 7 days, up to the highest concentrations used
Procedure: as §1, §2, §3, §4

[1] = parameters: method as in PMID 19363158; conditions: cited from earlier work
[2] = target: T1, progesterone receptor (PR) (Homo sapiens, UniProt P06401); test: Transactivation assay in HELN PR cells; assay type: cell-based; conditions: 16 h, antagonism in the presence of 1 nM R5020
T1 sequence (P06401 679-933 limits assumed): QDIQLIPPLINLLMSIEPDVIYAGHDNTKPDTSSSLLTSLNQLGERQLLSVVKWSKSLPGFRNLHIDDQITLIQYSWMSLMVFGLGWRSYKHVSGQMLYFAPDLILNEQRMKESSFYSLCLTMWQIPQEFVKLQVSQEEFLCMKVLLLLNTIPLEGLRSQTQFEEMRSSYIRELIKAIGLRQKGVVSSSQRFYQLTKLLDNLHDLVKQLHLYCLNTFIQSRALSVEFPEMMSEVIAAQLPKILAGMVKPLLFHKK
Excerpt: (§5) HG5LN MR and HG5LN PXR luciferase reporter cell lines were obtained by stable expression of individual ligand binding domains fused to GAL4 DNA binding domain in HG5LN (HeLa GAL4REx5-luciferase) cells, as previously described. HELN PR cells were obtained by stably expressing PR with the ERα DNA binding domain in HELN (HeLa ERE-luciferase) cells and HMLN GR cells were obtained by stable co-transfection of HeLa cells with a plasmid encoding for a glucocorticoid responsive gene (MMTV-Luc-SV-Neo) and a glucocorticoid receptor expressing plasmid, as previously described.
(§6) Agonistic activities were evaluated in HMLN GR, HELN PR, HG5LN MR, and HG5LN PXR cells, using dexamethasone 100 nM, R5020 100 nM, aldosterone 100 nM, and SR12813 3 μM as a positive control, respectively. […] RU486 was used as a control antagonist for GR and PR, and spironolactone for MR.
(§7) HMLN glucocorticoid receptor (GR), HG5LN mineralocorticoid receptor (MR), HELN progesterone receptor (PR) and HG5LN PXR cells were used to evaluate the antagonistic effect of the tested compounds on (A) the glucocorticoid receptor (GR), (B) the mineralocorticoid receptor (MR), (C) the progesterone receptor (PR) and (D) the agonistic activity towards the pregnane X receptor (PXR). […]

[3] = tested on: AR target genes TMPRSS2, FKBP5, PSA; test: RT-qPCR of AR target genes in VCaP cells; conditions: 3 µM, 24 h, 1 nM R1881
Procedure: LNCaP and VCaP cells were seeded in 6-well plates (10^6 and 2 × 10^6 cells per well, respectively) and, 48 h later, complete medium was replaced by charcoal-stripped medium with 5% FBS. Cells were then treated for 24 h with the tested compounds, and RNA extraction was performed using the Quick RNA Miniprep kit (Zymo-Research, Irvine, CA, USA), according to the manufacturer’s protocol. Reverse transcription was performed with 0.5 µg total RNA using the SuperScript III reverse transcriptase kit (ThermoFisher, Waltham, MA, USA), according to the manufacturer’s protocol, in a final volume of 20 µL. The levels of genes transcripts were measured by real time PCR using a LightCycler 480 system (Roche Life Science, Penzberg, Germany) in the presence of SYBRGreen (SYBR® Premix Ex Taq^tm) and the following primers: FKBP5, sense 5′-[sequence]-3′; antisense 5′-[sequence]-3′; PSA, sense 5′-[sequence]-3′; antisense 5′-[sequence]-3′; TMPRSS2, sense 5′-[sequence]-3′, antisense 5′-[sequence]-3′; GR, sense 5′-[sequence]-3′, antisense 5′-[sequence]-3′; HPRT, sense 5′-[sequence]-3′; antisense 5′-[sequence]-3′; GAPDH, sense 5′-[sequence]-3′; antisense 5′-[sequence]-3′. Expression levels were evaluated with the ΔΔCt method and were normalized to GAPDH. Results are expressed as mRNA expression, relative to control (untreated cells), and are the mean ± SEM of 3 independent experiments.

VCaP cells = test: Spheroid growth (CellTiter-Glo), VCaP; conditions: 7 days, 1 nM R1881
[4] = target: T2, pregnane X receptor (PXR) (Homo sapiens, UniProt O75469); conditions: 16 h
T2 sequence (O75469 146-433 limits assumed): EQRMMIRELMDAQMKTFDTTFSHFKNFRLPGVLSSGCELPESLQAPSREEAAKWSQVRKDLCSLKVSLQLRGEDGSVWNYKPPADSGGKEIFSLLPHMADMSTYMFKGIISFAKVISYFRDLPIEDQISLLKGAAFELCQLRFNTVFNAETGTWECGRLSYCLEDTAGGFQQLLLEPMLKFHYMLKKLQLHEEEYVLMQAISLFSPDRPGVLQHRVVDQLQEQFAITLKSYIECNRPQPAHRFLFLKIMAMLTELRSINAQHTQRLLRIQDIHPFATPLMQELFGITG
Excerpt: as §5, §6, §7

## Cc1nccc2c1[nH]c1cc(O)ccc12 [harmol hydrochloride, Harmol hydrochloride monohydrate]
VCaP spheroids
  Cell death (propidium iodide positive cells) versus untreated spheroids: did not significantly affect the number of propidium iodide positive cells
LNCaP spheroids
  Cell death (propidium iodide positive cells) versus untreated spheroids: did not significantly affect the number of propidium iodide positive cells
[1]
  Metabolism when administered in mice: rapidly metabolized
[2]
  Activity towards PR: did not show any significant activity
[3]
  Expression of the AR non-target gene HPRT: unaffected
  R1881-mediated expression of AR target genes TMPRSS2, FKBP5, PSA: significant decrease
VCaP cells
  Growth of VCaP spheroids: A similar effect was observed
[4]
  Activity towards PXR (agonistic): did not show any significant activity

From paper PMC7349874, “High Content Screening Using New U2OS Reporter Cell Models Identifies Harmol Hydrochloride as a Selective and Competitive Antagonist of the Androgen Receptor” (Cells, 2020)
